# Laboratory results: patent publication US20230381142A1, “ANTILEISHMANIAL COMPOUNDS, COMPOSITIONS AND USE THEREOF” (TRUSTEES OF BOSTON UNIVERSITY, priority 2022, published 2023)
# Like-named read-outs stand apart in the source and are kept apart here.
# What was measured:
# [1] = tested on: L. braziliensis (strain BA788) in J774 cells; experiment: J774 luciferase infection assay (Assay Conditions E); format: cell-based, Leishmania braziliensis; conditions: for L. braziliensis amastigotes EC75 (J774 cells): footnote e
# Procedure: Assay Conditions E: J774 cells (ATCC J774A.1 were grown in DMEM supplemented with 10% Fetal Bovine Serum (FBS) and 1% Penicillin-Streptomycin at 37° C. in 5% CO2. Leishmania parasites expressing luciferase and GFP were grown as described in Front. Cell. Infect. Microbiol (2019) 9:237. J774 cells were seeded in microwell plates at 3×10^5 cells/mL density. Cells were washed with PBS and incubated with complete DMEM medium containing stationary phase Leishmania promastigotes (L. major: strain Friedlin; L. braziliensis, strain BA788) at a 1:10 parasite-cell ratio for 24 h. Cells were washed with PBS. Cells and compounds were incubated for 48 h at 37° C. and 5% C02. Compounds were tested in 8-point 2-fold serial dilution in 4 technical replicates, and 2 biological replicates. After 48 h, OneTiterGlo (Promega) (100 μl) was added to each well. Plates were incubated for 15 min and bioluminescence was measured using a plate reader (Molecular Devices). Effective concentration inducing 75% activity (EC75) was calculated using GraphPad Prism Software (version 9.0).
# [2] = tested on: L. donovani intracellular amastigotes in B10R cells; experiment: UCSD L. donovani infection assay (Assay Conditions D); format: cell-based; conditions: B10R cells; for L. donovani amastigotes EC75 (B10R cells): footnote d; for EC50: Leishmania donovani, values marked d, read-out: L. donovani amastigotes EC50 (B10R cells)
# How it was run: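 Compounds, either single-point at 10 μM or 10-point 2-fold series (3 technical, 2 biological replicates), were incubated 72 h at 37° C. with B10R host cells co-seeded with day-7 stationary L. donovani promastigotes (20:1). DAPI-stained nuclei imaging yielded intracellular parasite EC50 and host-cell CC50.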
# [3] = UCSD infection assay, host cell cytotoxicity (CC50); format: cell-based; conditions: mouse, B10R host cells infected with L. donovani
# Procedure: (§1) Assay Conditions D: B10R cells (CVCL_0155) were seeded at 300 cells/well, and L. donovani WT promastigotes in stationary phase (7th day after passage) were added at 6,000 parasites/well (ratio of 20 parasites/cell). Both cells and parasites were seeded in DMEM High-Glucose medium (Gibco, cat. no. 11995065) containing 5% Fetal Bovine Serum (Sigma-Aldrich, cat. no. F2442) and 1% Penicillin-Streptomycin (Gibco, cat. no. 15140122). Cells and parasites were incubated in the presence of the compounds for 72 h at 37° C. and 5% C02. Plates were then fixed with 4% formaldehyde solution for at least 1 h, then washed with 1×PBS and stained with 5 μg/mL DAPI. Plates were read using an ImageXpress microscope (Molecular Devices) and analyzed by MetaXpress software (Molecular Devices) using a custom module optimized for this assay. […] Compounds were tested in a 10-point 2-fold serial dilution in 3 technical replicates, and 2 biological replicates. After 72 h, plates were fixed and stained with DAPI as described above. Images were acquired on an ImageXpress microscope, and analyzed using the MetaXpress custom module.
# as §1, with “Compounds were obtained as 0.2 μmoles of dried film for primary single point screening. Each compound was diluted in DMSO to 10 μM final testing concentration. These compounds were tested in 2 biological replicates. The compounds were pre-spotted onto 384-well assay plates in single concentration.” for “Assay Conditions D:”, “CO2.” for “C02.”, “module. The DRCs were plotted, half-effective concentration (EC50) and half-cytotoxic concentration (CC50) were calculated using GraphPad Prism Software, version 6.05 (GraphPad Software, San Diego, CA).” for “module.”
# THP-1 cells = experiment: Host THP-1 cell cytotoxicity in the CDIPD high content screen; format: cell-based, human; conditions: Homo sapiens, THP-1; 10 μM; footnote b; read-out: THP-1 host cell % growth inhibition at 10 μM
# Procedure: (§2) Assay Conditions B: THP-1 cells (human acute monocytic leukemia cell line—ATCC TIB202) were grown in RPMI supplemented with 10% Fetal Bovine Serum (FBS) and 50 μM 2-mercaptoethanol at 37° C. in 5% CO2. THP-1 were seeded in microwell plates at 5×10^5 cells/mL density and treated with 0.1 μM phorbol myristate acetate (PMA, Sigma) at 37° C. for 48 h for differentiation into adherent, non-dividing macrophages. After activation by PMA, cells were washed and incubated with complete RPMI medium containing stationary phase Leishmania promastigotes (L. major: strain LV39; L. donovani, strain 1S/Cl2D) at a 1:15 parasite-cell ratio. Compounds were added and incubated at 37° C. for 72 h. Cells were then washed with phosphate-buffered saline (PBS), fixed for 30 minutes with 4% formaldehyde, rinsed again with PBS, stained for 2 h with 4′,6′-diamidino-2-phenylindole (DAPI 300 nM) and finally washed with PBS. In a collaborative effort to identify new antileishmanial chemotypes with minimal host cell cytotoxicity, compounds from the Boston University Center for Molecular Discovery (BUCMD) screening collection were assessed in a phenotypic, high content primary screen at the University of California's Center for Discovery and Innovation in Parasitic Diseases (CDIPD) for the ability to inhibit growth of L. donovani intracellular amastigotes infecting THP-1 cells. […] Dose-response testing in L. donovani (both intracellular amastigotes and promastigotes) confirmed concentration-dependent growth inhibition of both morphologies of the parasite at low micromolar EC50 values for both compounds (Table 1).
# [4] = tested on: L. donovani intracellular amastigotes infecting THP-1 cells; experiment: High content intracellular amastigote assay in THP-1 cells (Assay Conditions B; CDIPD screen); format: cell-based, Leishmania donovani; conditions: 10 μM; THP-1 cells; footnote b
# Procedure: as §2
# [5] = tested on: L. donovani intracellular amastigotes infecting THP-1 macrophages; experiment: GSK intramacrophage L. donovani assay (LD AMMAC, inMac; Assay Conditions C); format: cell-based; conditions: Leishmania donovani
# How it was run: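 EC50 values come from counting amastigotes per infected THP-1 macrophage (AMMAC). Parallel read-outs give percentage of infected cells per well (INFCELL) and a macrophage-number toxicity EC50 (MAC).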
# [6] = GSK inMac assay, host cell toxicity readout (LD MAC); format: cell-based, human; conditions: human
# How it was run: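 MAC EC50 reflects THP-1 host cell counts, measured within GSK's inMac L. donovani infection assay that also scores intracellular amastigotes and infected-cell percentage.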
# [7] = footnote c, read-out: THP-1 Host Cell CC50
smiles,measurement,setting,value
Cc1cc(N2C(=O)c3[nH]nc(CC(C)C)c3C2c2ccccc2Cl)ccn1 (stereo not drawn) [BUCMD00639],L. braziliensis amastigotes EC75 (J774 cells),[1],>10 µM
same,L. donovani amastigotes EC75 (B10R cells),[2],0.4 µM
same,CC50 at 72 h,[3]; footnote d,20 µM
CC(C)Cc1n[nH]c2c1C(c1ccc(Br)cc1F)N(c1ccc(F)nc1)C2=O (stereo not drawn) [BUCMD00649],"L. braziliensis amastigotes EC75 (μM, J774 cells)",[1],>10 µM
same,"L. donovani amastigotes EC75 (μM, B10R cells)",[2],>10 µM
CC(C)Cc1n[nH]c2c1C(c1ccc(F)cc1Br)N(c1ccc(F)nc1)C2=O (stereo not drawn) [BUCMD00650],"L. braziliensis amastigotes EC75 (μM, J774 cells)",[1],9.0 µM
same,"L. donovani amastigotes EC75 (μM, B10R cells)",[2],>10 µM
Cc1ccccc1C1c2c(CC(C)C)n[nH]c2C(=O)N1c1ccc(F)nc1 (stereo not drawn) [BUCMD00651],"L. braziliensis amastigotes EC75 (μM, J774 cells)",[1],>10 µM
same,"L. donovani amastigotes EC75 (μM, B10R cells)",[2],6.3 µM
Cc1cc(F)ccc1C1c2c(CC(C)C)n[nH]c2C(=O)N1c1cnn(C(C)C)c1 (stereo not drawn) [BUCMD00673],"L. braziliensis amastigotes EC75 (μM, J774 cells)",[1],>10 µM
same,"L. donovani amastigotes EC75 (μM, B10R cells)",[2],>10 µM
COc1ccc(N2C(=O)c3[nH]nc(CC(C)C)c3C2c2ccc(F)cc2Cl)cn1 (stereo not drawn) [BUCMD00684],"L. braziliensis amastigotes EC75 (μM, J774 cells)",[1],10.0 µM
same,"L. donovani amastigotes EC75 (μM, B10R cells)",[2],>10 µM
COc1ccc(N2C(=O)c3[nH]nc(CC(C)C)c3C2c2ccc(Cl)cc2F)cn1 (stereo not drawn) [BUCMD00685],"L. braziliensis amastigotes EC75 (μM, J774 cells)",[1],>10 µM
same,"L. donovani amastigotes EC75 (μM, B10R cells)",[2],1.7 µM
COc1ccc(N2C(=O)c3[nH]nc(CC(C)C)c3C2c2ccccc2C)cn1 (stereo not drawn) [BUCMD00687],"L. braziliensis amastigotes EC75 (μM, J774 cells)",[1],>10 µM
same,"L. donovani amastigotes EC75 (μM, B10R cells)",[2],>10 µM
COc1ccc(N2C(=O)c3[nH]nc(CC(C)C)c3C2c2ccc(F)cc2F)cn1 (stereo not drawn) [BUCMD00688],"L. braziliensis amastigotes EC75 (μM, J774 cells)",[1],>10 µM
same,"L. donovani amastigotes EC75 (μM, B10R cells)",[2],3.3 µM
COc1ccc(N2C(=O)c3[nH]nc(CC(C)C)c3C2c2ccccc2C(F)(F)F)cn1 (stereo not drawn) [BUCMD00689],"L. braziliensis amastigotes EC75 (μM, J774 cells)",[1],>10 µM
same,"L. donovani amastigotes EC75 (μM, B10R cells)",[2],>10 µM
COc1ccc(N2C(=O)c3[nH]nc(CC(C)C)c3C2c2sccc2C)cn1 (stereo not drawn) [BUCMD00690],"L. braziliensis amastigotes EC75 (μM, J774 cells)",[1],>10 µM
same,"L. donovani amastigotes EC75 (μM, B10R cells)",[2],9.7 µM
COc1ccc(N2C(=O)c3[nH]nc(CC(C)C)c3C2c2ccccc2F)cn1 (stereo not drawn) [BUCMD00691],"L. braziliensis amastigotes EC75 (μM, J774 cells)",[1],>10 µM
same,"L. donovani amastigotes EC75 (μM, B10R cells)",[2],4.9 µM
COc1ccc(N2C(=O)c3[nH]nc(CC(C)C)c3C2c2ccc(F)c(F)c2)cn1 (stereo not drawn) [BUCMD00692],"L. braziliensis amastigotes EC75 (μM, J774 cells)",[1],>10 µM
same,"L. donovani amastigotes EC75 (μM, B10R cells)",[2],>10 µM
CC(C)Cc1n[nH]c2c1C(c1ccc(F)cc1Cl)N(c1cncc(F)c1)C2=O (stereo not drawn) [BUCMD00694],L. braziliensis amastigotes EC75 (J774 cells),[1],>10 µM
same,L. donovani amastigotes EC75 (B10R cells),[2],0.4 µM
same,CC50 at 72 h,[3]; footnote d,10 µM
C#CCCOc1ccc(C2c3c(CC(C)C)n[nH]c3C(=O)N2c2ccc(OC)cc2)c(Cl)c1 (stereo not drawn) [BUCMD00728],"L. braziliensis amastigotes EC75 (μM, J774 cells)",[1],>10 µM
same,"L. donovani amastigotes EC75 (μM, B10R cells)",[2],>10 µM
COc1ncc(N2C(=O)c3[nH]nc(CC(C)C)c3C2c2ccc(F)cc2C)cc1F (stereo not drawn) [BUCMD00729],L. braziliensis amastigotes EC75 (J774 cells),[1],2.0 µM
same,L. donovani amastigotes EC75 (B10R cells),[2],0.4 µM
same,CC50 at 72 h,[3]; footnote d,6.31 µM
C#CCCCCOc1ccc(C2c3c(CC(C)C)n[nH]c3C(=O)N2c2ccc(OC)nc2)c(Cl)c1 (stereo not drawn) [BUCMD00738],"L. braziliensis amastigotes EC75 (μM, J774 cells)",[1],>10 µM
same,"L. donovani amastigotes EC75 (μM, B10R cells)",[2],>10 µM
same,CC50 at 72 h,[3]; host B10R cells,7.94 µM
COc1ccc(N2C(=O)c3[nH]nc(C(C)C)c3C2c2ccc(C)cc2)cc1 (stereo not drawn) [CMLD007169],inhibition at 10 µM,THP-1 cells,< 10%
same,L. donovani amastigotes % GI at 10 μM (THP-1 cells),[4],0.0%
COc1ccc(N2C(=O)c3[nH]nc(C(C)C)c3C2c2ccc(F)cc2)cc1 (stereo not drawn) [CMLD007188],inhibition at 10 µM,THP-1 cells,< 10%
same,L. donovani amastigotes % GI at 10 μM (THP-1 cells),[4],0.0%
COc1ccc(N2C(=O)c3[nH]nc(-c4ccccc4)c3C2c2ccccc2)cc1 (stereo not drawn) [CMLD007203],inhibition at 10 µM,THP-1 cells,< 10%
same,L. donovani amastigotes % GI at 10 μM (THP-1 cells),[4],0.0%
COc1ccc(N2C(=O)c3[nH]nc(C)c3C2c2ccccc2)cc1 (stereo not drawn) [CMLD007219],inhibition at 10 µM,THP-1 cells,< 10%
same,L. donovani amastigotes % GI at 10 μM (THP-1 cells),[4],0.0%
COc1ccc(N2C(=O)c3[nH]nc(C)c3C2c2ccc(F)cc2)cc1 (stereo not drawn) [CMLD007221],inhibition at 10 µM,THP-1 cells,< 10%
same,L. donovani amastigotes % GI at 10 μM (THP-1 cells),[4],0.0%
COc1ccc(N2C(=O)c3[nH]nc(CC(C)C)c3C2c2ccc(F)cn2)cc1 (stereo not drawn) [CMLD011100],L. braziliensis amastigotes EC75 (J774 cells),[1],>10 µM
same,L. donovani amastigotes EC75 (B10R cells),[2],4.4 µM
same,EC50,"[5]; THP-1 cells, values marked c, read-out: L. donovani amastigotes EC50 (THP-1 cells)",10 µM
same,CC50,[6]; [7],> 50 µM
COc1ccccc1C1c2c(CC(C)C)n[nH]c2C(=O)N1c1ccc(N(C)C)cc1 (stereo not drawn) [CMLD011552],L. braziliensis amastigotes EC75 (J774 cells),[1],>10 µM
same,L. donovani amastigotes EC75 (B10R cells),[2],0.1 µM
same,EC50,[2],0.1 µM
same,CC50 at 72 h,[3]; footnote d,3.98 µM
same,CC50,[6]; [7],3.5 µM
Cc1cc(F)ccc1C1c2c(CC(C)C)n[nH]c2C(=O)N1c1ccc(Br)cc1 (stereo not drawn) [CMLD011565],L. braziliensis amastigotes EC75 (J774 cells),[1],5.0 µM
same,L. donovani amastigotes EC75 (B10R cells),[2],0.1 µM
same,EC50,[2],0.1 µM
same,CC50 at 72 h,[3]; footnote d,3.98 µM
same,CC50,[6]; [7],3 µM
COc1ccc(N2C(=O)c3[nH]nc(CC(C)C)c3[C@H]2c2ccc(F)cc2)cc1 [CMLD013629],"L. donovani amastigotes EC75 (μM, B10R cells)",[2],>10 µM
same,EC50,"[5]; values marked c: THP-1 cells, read-out: L. donovani amastigotes EC50 (μM, THP-1 or B10R cells)",10 µM
same,CC50 at 72 h,[3]; host B10R cells,20 µM
same,CC50,[6]; host THP-1 cells,25.1 µM
